According to ChEMBL document CHEMBL1150171, “DNA-damaging agents from Crypteronia paniculata” (J Nat Prod, 2002):
Activity calls are given as the source filed them. No cut-off for these calls is given here.

Columns and labels:
[1] = test system: Saccharomyces cerevisiae; test: DNA damaging activity against RAD52 transformed Saccharomyces cerevisiae in glucose minimal medium after 41 hrs; type: functional, organism-based
[2] = test system: Saccharomyces cerevisiae; test: DNA damaging activity against YCp50 transformed Saccharomyces cerevisiae in galactose minimal medium after 41 hrs
[3] = test system: Saccharomyces cerevisiae; test: DNA damaging activity against RAD52 transformed Saccharomyces cerevisiae in galactose minimal medium after 41 hrs; type: functional, organism-based
[4] = test system: Nucleic Acid; test: Induction of DNA cleavage assessed as relaxation of supercoiled plasmid DNA at > 1 mM in presence of Cu2+ by cell free assay; type: nucleic-acid assay
[5] = test system: Nucleic Acid; test: Induction of DNA cleavage assessed as relaxation of supercoiled plasmid DNA at > 1 mM by cell free assay; type: nucleic-acid assay

Row | IC50 [1] [µM] | IC50 [2] [µM] | IC50 [3] [µM] | Activity [4] | Activity [5] | Structure (SMILES)
1 | 3.1 | 23.1 | > 1000 | – | – | COc1c(O)cc2c(=O)oc3c(OC)c(O[C@@H]4OC[C@@H](O)[C@H](O)[C@H]4O)cc4c(=O)oc1c2c34
2 | 7.4 | 9.3 | > 1000 | inactive | inactive | C[C@@H]1O[C@@H](Oc2c(-c3ccc(O)cc3)oc3cc(O)cc(O)c3c2=O)[C@H](O)[C@H](O)[C@H]1O [AFZELIN]
3 | 1.12 | 0.341 | 14.4 | – | – | COc1c(O[C@@H]2O[C@H](CO)[C@@H](O)[C@H](O)[C@H]2O)cc2c(=O)oc3c4c(cc5c(=O)oc1c2c35)OCO4 [NYSSOSIDE]
